According to patent publication US20040082635A1, “Fused cyclic compounds and medicinal use thereof” (priority 2001, published 2004):
Where a name gives a salt, the structure may show the parent alone.

Molecular target: T1, HCV polymerase (Hepatitis C virus genotype 1b, UniProt P26663)
T1 construct: a region encoding NS5B (591 amino acids; J Virol 1991 Mar, 65(3), 1105-13) was amplified by PCR; 6 His (N); made in house; host or cells: Escherichia coli
Assay: biochemical
Conditions: read-out: HCV polymerase inhibitory activity IC50

T1 sequence (P26663 2420-3010): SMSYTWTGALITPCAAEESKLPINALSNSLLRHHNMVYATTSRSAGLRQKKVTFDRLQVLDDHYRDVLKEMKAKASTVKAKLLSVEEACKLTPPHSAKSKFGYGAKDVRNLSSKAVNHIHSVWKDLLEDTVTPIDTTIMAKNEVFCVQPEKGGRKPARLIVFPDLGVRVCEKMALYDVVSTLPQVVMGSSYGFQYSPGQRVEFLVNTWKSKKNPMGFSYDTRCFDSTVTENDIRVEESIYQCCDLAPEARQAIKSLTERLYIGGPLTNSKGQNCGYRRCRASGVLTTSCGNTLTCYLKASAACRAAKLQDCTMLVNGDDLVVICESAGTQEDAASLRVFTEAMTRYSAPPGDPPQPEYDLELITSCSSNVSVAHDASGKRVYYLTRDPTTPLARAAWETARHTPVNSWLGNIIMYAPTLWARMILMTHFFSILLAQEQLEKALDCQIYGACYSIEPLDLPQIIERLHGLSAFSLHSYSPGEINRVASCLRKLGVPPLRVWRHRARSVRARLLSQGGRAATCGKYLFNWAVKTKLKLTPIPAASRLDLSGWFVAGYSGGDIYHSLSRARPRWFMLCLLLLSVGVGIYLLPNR

`O=C(O)c1ccc2c(c1)nc(-c1ccc(Oc3ccc(OCc4ccccc4)cc3)cc1C(F)(F)F)n2C1CCCCC1` [Example 150, 2-{4-(4-benzyloxyphenoxy)-2-trifluoromethylphenyl}-1-cyclohexylbenzimidazole-5-carboxylic acid] and `O=C(O)c1ccc2c(c1)nc(-c1ccc(Oc3cc(OCc4ccccc4)ncn3)cc1)n2C1CCCCC1` [Example 238, 2-[4-(4-benzyloxy-6-pyrimidinyloxy)phenyl]-1-cyclohexylbenzimidazole-5-carboxylic acid] are within 1.5-fold of each other in IC50: 240 nM for the first, 190 nM for the second.

Compared with `O=C(O)c1ccc2c(c1)nc(-c1ccc(OCc3cccc([N+](=O)[O-])c3-c3ccc(Cl)cc3)cc1)n2C1CCCCC1` [Example 208, 1-cyclohexyl-2-{4-[2-(4-chlorophenyl)-3-nitrobenzyloxy]phenyl}-benzimidazole-5-carboxylic acid], `CC(C)NC(=O)c1ccc(-c2ccc(Cl)cc2)c(COc2ccc(-c3nc4cc(C(=O)O)ccc4n3C3CCCCC3)cc2)c1` [Example 330, 2-{4-[2-(4-chlorophenyl)-5-(isopropylcarbamoyl)benzyloxy]phenyl}-1-cyclohexylbenzimidazole-5-carboxylic acid hydrochloride] is 3.5-fold lower in IC50: 39 nM for the first, 11 nM for the second. The second is the more potent here.

`CN(C)C(=O)Nc1ccc(-c2ccc(Cl)cc2)c(COc2ccc(-c3nc4cc(C(=O)O)ccc4n3C3CCCCC3)c(F)c2)c1` [Example 391, 2-{4-[2-(4-chlorophenyl)-5-{(dimethylcarbamoyl)amino}benzyloxy]-2-fluorophenyl}-1-cyclohexylbenzimidazole-5-carboxylic acid hydrochloride] and `CN(C)C(=O)c1ccc(-c2ccc(Cl)cc2)c(COc2ccc(-c3nc4cc(C(=O)O)ccc4n3C3CCCCC3)c(F)c2)c1` [Example 269, 2-{4-[2-(4-chlorophenyl)-5-dimethylcarbamoylbenzyloxy]-2-fluorophenyl}-1-cyclohexylbenzimidazole-5-carboxylic acid hydrochloride] are within 1.5-fold of each other in IC50: 17 nM for the first, 13 nM for the second.

First: O=C(O)c1ccc2c(c1)nc(-c1ccc(OCc3cc(C(=O)NCCc4ccncc4)ccc3-c3ccc(Cl)cc3)cc1)n2C1CCCCC1 [Example 325, 2-{4-[2-(4-chlorophenyl)-5-(2-pyridin-4-ylethylcarbamoyl)-benzyloxy]phenyl}-1-cyclohexylbenzimidazole-5-carboxylic acid dihydrochloride]
Second: O=C(O)c1ccc2c(c1)nc(-c1ccc(OCc3cc(C(=O)NCc4ccncc4)ccc3-c3ccc(Cl)cc3)cc1)n2C1CCCCC1 [Example 318, 2-{4-[2-(4-chlorophenyl)-5-(4-pyridylmethylcarbamoyl)-benzyloxy]phenyl}-1-cyclohexylbenzimidazole-5-carboxylic acid dihydrochloride]
The IC50 of the first is 1.6-fold higher: 19 nM for the first, 12 nM for the second. The second is the more potent here.

Going from `CN(C)C(=O)c1ccc(-c2ccc(Cl)cc2)c(COc2ccc(-c3nc4cc(C(=O)O)ccc4n3C3CCCC3)cc2)c1` [Example 414, 2-{4-[2-(4-chlorophenyl)-5-(dimethylcarbamoyl)benzyloxy]phenyl}-1-cyclopentylbenzimidazole-5-carboxylic acid hydrochloride] to `COc1ccc(-c2ccc(C(=O)O)cc2)c(COc2ccc(-c3nc4cc(C(=O)O)ccc4n3C3CCCCC3)cc2)c1` [Example 306, 2-{4-[2-(4-carboxyphenyl)-5-methoxybenzyloxy]phenyl}-1-cyclohexylbenzimidazole-5-carboxylic acid], the IC50 falls from 24 nM to 13 nM (1.8-fold). The second is the more potent here.

Going from `O=C(O)c1ccc2c(c1)nc(-c1ccc(OC(C(=O)O)(c3ccccc3)c3ccccc3)cc1)n2C1CCCCC1` [Example 181, 2-[4-(carboxydiphenylmethoxy)phenyl]-1-cyclohexylbenzimidazole-5-carboxylic acid] to `O=C(O)c1ccc2c(c1)nc(-c1ccc(Oc3ccccc3-c3ccccc3)cc1)n2C1CCCCC1` [Example 153, 2-[4-(2-biphenylyloxy)phenyl]-1-cyclohexylbenzimidazole-5-carboxylic acid], the IC50 falls from 710 nM to 190 nM (3.7-fold). The second is the more potent here.

Going from `O=C(O)c1ccc2c(c1)nc(-c1ccc(OCc3ccc(Cl)cc3)cc1)n2C1CCCC1` [Example 45, 2-[4-(4-chlorobenzyloxy)phenyl]-1-cyclopentylbenzimidazole-5-carboxylic acid] to `Cc1nc(-c2ccc(Cl)cc2)c(COc2ccc(-c3nc4cc(C(=O)O)ccc4n3C3CCCCC3)cc2)s1` [Example 218, 2-{4-[{4-(4-chlorophenyl)-2-methyl-5-thiazolyl}methoxy]phenyl}-1-cyclohexylbenzimidazole-5-carboxylic acid], the IC50 falls from 400 nM to 33 nM (12-fold).

First: O=C(O)c1ccc2c(c1)nc(-c1ccc(OCc3cc(C(=O)N4CCC(O)CC4)sc3-c3ccc(F)cc3)cc1F)n2C1CCCCC1 [Example 433, 2-{4-[{2-(4-fluorophenyl)-5-(4-hydroxypiperidin-1-ylcarbonyl)thiophen-3-yl}methoxy]-2-fluorophenyl}-1-cyclohexylbenzimidazole-5-carboxylic acid hydrochloride]
Second: O=C(O)c1ccc2c(c1)nc(-c1ccc(OC(c3ccc(F)cc3)c3cccc(C(=O)N4CCC(O)CC4)c3)cc1F)n2C1CCCCC1 (stereo not drawn) [Example 443, 2-{4-[{3-(4-hydroxypiperidyl-1-ylcarbonyl)phenyl}(4-fluorophenyl)methoxy]-2-fluorophenyl}-1-cyclohexylbenzimidazole-5-carboxylic acid hydrochloride]
The IC50 of the first is 2.1-fold lower: 14 nM for the first, 30 nM for the second. The first is the more potent here.

`C#CCOc1cccc(Oc2ccc(-c3nc4cc(C(=O)O)ccc4n3C3CCCCC3)cc2)c1` [Example 177, 1-cyclohexyl-2-{4-[3-(2-propynyloxy)phenoxy]phenyl}benzimidazole-5-carboxylic acid] and `CN1CCC(COc2cccc(Oc3ccc(-c4nc5cc(C(=O)O)ccc5n4C4CCCCC4)cc3)c2)CC1` [Example 211, 1-cyclohexyl-2-{4-[3-{(1-methyl-4-piperidyl)methoxy}phenoxy]-phenyl}benzimidazole-5-carboxylic acid] are within 1.5-fold of each other in IC50: 77 nM for the first, 59 nM for the second.

First: CC(C)NC(=O)c1ccc(-c2ccc(Cl)cc2)c(COc2ccc(-c3nc4cc(S(N)(=O)=O)ccc4n3C3CCCCC3)c(F)c2)c1 [Example 447, 3-{[4-(5-aminosulfonyl-1-cyclohexylbenzimidazol-2-yl)-3-fluorophenoxy]methyl}-4-(4-chlorophenyl)-N-isopropylbenzamide]
Second: CC(C)NC(=O)c1ccc(-c2ccc(Cl)cc2)c(COc2ccc(-c3nc4cc(-c5noc(=O)[nH]5)ccc4n3C3CCCCC3)c(F)c2)c1 [Example 436, 2-{4-[2-(4-chlorophenyl)-5-(isopropylcarbamoyl)benzyloxy]-2-fluorophenyl}-1-cyclohexyl-5-(2,5-dihydro-5-oxo-4H-1,2,4-oxadiazol-3-yl)benzimidazole hydrochloride]
The IC50 of the first is 4.6-fold higher: 120 nM for the first, 26 nM for the second. The second is the more potent here.

First: CCCN(c1ccc(-c2ccc(Cl)cc2)c(COc2ccc(-c3nc4cc(C(=O)O)ccc4n3C3CCCCC3)c(F)c2)c1)S(C)(=O)=O [Example 462, 2-[4-{2-(4-chlorophenyl)-5-[N-(methylsulfonyl)-N-propylamino]benzyloxy}-2-fluorophenyl]-1-cyclohexylbenzimidazole-5-carboxylic acid hydrochloride]
Second: CCCNC(=O)c1ccc(-c2ccc(Cl)cc2)c(COc2ccc(-c3nc4cc(C(=O)O)ccc4n3C3CCCCC3)c(F)c2)c1 [Example 389, 2-{4-[2-(4-chlorophenyl)-5-(propylcarbamoyl)benzyloxy]-2-fluorophenyl}-1-cyclohexylbenzimidazole-5-carboxylic acid hydrochloride]
The IC50 of the first is 2.3-fold higher: 28 nM for the first, 12 nM for the second.

Compared with `O=C(O)c1ccc2c(c1)nc(-c1ccc(OCc3nc(N4CCCC4=O)ccc3-c3ccc(Cl)cc3)cc1F)n2C1CCCCC1` [Example 457, 2-[4-{[3-(4-chlorophenyl)-6-(2-oxopyrrolidin-1-yl)pyridin-2-yl]methyloxy}-2-fluorophenyl]-1-cyclohexylbenzimidazole-5-carboxylic acid hydrochloride], `O=C(O)c1ccc2c(c1)nc(-c1ccc(OCc3cc(Cl)ccc3-c3ccccc3)cc1F)n2C1CCCCC1` [Example 146, 2-{4-(3-chloro-6-phenylbenzyloxy)-2-fluorophenyl}-1-cyclohexylbenzimidazole-5-carboxylic acid] is 2.9-fold higher in IC50: 15 nM for the first, 43 nM for the second.

`O=C(O)c1ccc2c(c1)nc(-c1ccc(OC[C@@H]3CCCN3c3ccc([N+](=O)[O-])cc3)cc1)n2C1CCCCC1` [Example 203, 1-cyclohexyl-2-{4-[{(2S)-1-(4-nitrophenyl)-2-pyrrolidinyl}-methoxy]phenyl}benzimidazole-5-carboxylic acid] and `CC(=O)Nc1ccc(N2CCC[C@H]2COc2ccc(-c3nc4cc(C(=O)O)ccc4n3C3CCCCC3)cc2)cc1` [Example 205, 2-{4-[{(2S)-1-(4-acetylaminophenyl)-2-pyrrolidinyl}methoxy]-phenyl}-1-cyclohexylbenzimidazole-5-carboxylic acid] are within 1.5-fold of each other in IC50: 63 nM for the first, 77 nM for the second.

Going from `O=C(O)c1ccc(-c2ncccc2COc2ccc(-c3nc4cc(C(=O)O)ccc4n3C3CCCCC3)cc2)cc1` [Example 263, 2-{4-[{2-(4-carboxyphenyl)-3-pyridyl}methoxy]phenyl}-1-cyclohexylbenzimidazole-5-carboxylic acid] to `O=C(O)c1ccc2c(c1)nc(-c1ccc(Oc3cccc(-c4ccccc4)c3)cc1)n2C1CCCCC1` [Example 154, 2-[4-(3-biphenylyloxy)phenyl]-1-cyclohexylbenzimidazole-5-carboxylic acid], the IC50 rises from 35 nM to 76 nM (2.2-fold). The first is the more potent here.

Compared with `O=C(O)c1ccc2c(c1)nc(-c1ccc(OC(c3ccc(Cl)cc3)c3ccc(Cl)cc3)cc1)n2C1CCCCC1` [Example 118, 2-{4-[bis(4-chlorophenyl)methoxy]phenyl}-1-cyclohexylbenzimidazole-5-carboxylic acid], `CC(C)NC(=O)c1ccc(-c2cc(Cl)cc(Cl)c2)c(COc2ccc(-c3nc4cc(C(=O)O)ccc4n3C3CCCCC3)c(F)c2)c1` [Example 398, 2-{4-[2-(3,5-dichlorophenyl)-5-(isopropylcarbamoyl)benzyloxy]-2-fluorophenyl}-1-cyclohexylbenzimidazole-5-carboxylic acid hydrochloride] is 1.8-fold lower in IC50: 140 nM for the first, 77 nM for the second. The second is the more potent here.
